Results from patent US10913727B2, “Modulators of the integrated stress pathway” (Calico Life Sciences LLC, priority 2016, dated 2021).

Test system: HEK293T cells carrying the ATF4 luciferase reporter
Assay: ATF4-Luc assay, in vitro model of Vanishing Cell White Matter Disease (VWMD)
Type: cell-based
Details: Homo sapiens, HEK-293T, 1 μg/mL tunicamycin, 7 hours, One Glo luminescence
Method in brief: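 Stable HEK293T line with human ATF4 5′-UTR–firefly luciferase reporter treated with 1 μg/mL tunicamycin plus 200 nM compound for 7 h. Luminescence read; EC50 derived.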

Cc1csc(C(=O)NC23CC(NC(=O)COc4ccc(Cl)c(F)c4)(C2)C3)n1 [Compound 450, N-{3-[2-(4-chloro-3-fluorophenoxy)acetamido]bicyclo[1.1.1]pentan-1-yl}-4-methyl-1,3-thiazole-2-carboxamide]
EC50: 50 to 250 nM

Cc1cc(Cl)cnc1C(=O)NC12CC(NC(=O)COc3ccc(Cl)c(F)c3)(C1)C2 [Compound 777, 5-chloro-N-{3-[2-(4-chloro-3-fluorophenoxy)acetamido]bicyclo[1.1.1]pentan-1-yl}-3-methylpyridine-2-carboxamide]
EC50: > 2000 nM

Cc1cc(C(=O)NC23CC(NC(=O)COc4ccc(Cl)c(F)c4)(C2)C3)n(C)n1 [Compound 241, N-{3-[2-(4-chloro-3-fluorophenoxy)acetamido]bicyclo[1.1.1]pentan-1-yl}-1,3-dimethyl-1H-pyrazole-5-carboxamide]
EC50: < 50 nM

O=C(COc1ccc2c(c1)OC(F)(F)O2)NC12CC(NC(=O)c3cnc(C4CC4)o3)(C1)C2 [Compound 717, 2-cyclopropyl-N-(3-{2-[(2,2-difluoro-2H-1,3-benzodioxol-5-yl)oxy]acetamido}bicyclo[1.1.1]pentan-1-yl)-1,3-oxazole-5-carboxamide]
EC50: 250 to 1000 nM

O=C(COc1ccc(F)c(F)c1)NC12CC(Nc3cnc(-c4cccnc4)cn3)(C1)C2 [Compound 731, 2-(3,4-difluorophenoxy)-N-(3-{[5-(pyridin-3-yl)pyrazin-2-yl]amino}bicyclo[1.1.1]pentan-1-yl)acetamide]
EC50: 1000 to 2000 nM

CC(C)(O)c1ccc(C(=O)NC23CC(NC(=O)COc4ccc(Cl)c(F)c4)(C2)C3)cc1 [Compound 208, N-{3-[2-(4-chloro-3-fluorophenoxy)acetamido]bicyclo[1.1.1]pentan-1-yl}-4-(2-hydroxypropan-2-yl)benzamide]
EC50: 1000 to 2000 nM

Cc1noc(C(=O)NC23CCC(NC(=O)COc4ccc(Cl)c(F)c4)(CC2)C(O)C3)n1 (stereo not shown) [Compound 503, N-{4-[2-(4-chloro-3-fluorophenoxy)acetamido]-3-hydroxybicyclo[2.2.2]octan-1-yl}-3-methyl-1,2,4-oxadiazole-5-carboxamide]
EC50: 50 to 250 nM

O=C(COc1ccc(Cl)c(Cl)c1)NC12CC(NC(=O)c3ccccn3)(C1)C2 [Compound 156, N-{3-[2-(3,4-dichlorophenoxy)acetamido]bicyclo[1.1.1]pentan-1-yl}pyridine-2-carboxamide]
EC50: 50 to 250 nM

Cc1nc(C(=O)NC23CC(NC(=O)COc4ccc(Cl)c(F)c4)(C2)C3)co1 [Compound 249, N-{3-[2-(4-chloro-3-fluorophenoxy)acetamido]bicyclo[1.1.1]pentan-1-yl}-2-methyl-1,3-oxazole-4-carboxamide]
EC50: 50 to 250 nM

O=C(COc1ccc(Cl)c(F)c1)NC12CC(NC(=O)c3cnc(C4=CCOCC4)o3)(C1)C2 [Compound 138, N-{3-[2-(4-chloro-3-fluorophenoxy)acetamido]bicyclo[1.1.1]pentan-1-yl}-2-(3,6-dihydro-2H-pyran-4-yl)-1,3-oxazole-5-carboxamide]
EC50: 50 to 250 nM

O=C(COc1ccc(Cl)c(F)c1)NC12CC(NC(=O)c3ccc(C(F)F)nc3)(C1)C2 [Compound 207, N-{3-[2-(4-chloro-3-fluorophenoxy)acetamido]bicyclo[1.1.1]pentan-1-yl}-6-(difluoromethyl)pyridine-3-carboxamide]
EC50: 50 to 250 nM

O=C(COc1ccc(Cl)c(F)c1)NC12CC(NC(=O)c3cnn(-c4ccccn4)c3)(C1)C2 [Compound 802, N-{3-[2-(4-chloro-3-fluorophenoxy)acetamido]bicyclo[1.1.1]pentan-1-yl}-1-(pyridin-2-yl)-1H-pyrazole-4-carboxamide]
EC50: > 2000 nM

O=C(COc1ccc(Cl)c(F)c1)NC12CCC(NC(=O)c3cccc[n+]3[O-])(CC1)CC2O (stereo not shown) [Compound 944, N-{4-[2-(4-chloro-3-fluorophenoxy)acetamido]-3-hydroxybicyclo[2.2.2]octan-1-yl}-1-oxo-1λ^5-pyridine-2-carboxamide]
EC50: > 2000 nM

O=C(COc1ccc(Cl)c(F)c1)NC12CC(NC(=O)c3ccccc3)(C1)C2 [Compound 198, N-{3-[2-(4-chloro-3-fluorophenoxy)acetamido]bicyclo[1.1.1]pentan-1-yl}benzamide]
EC50: 50 to 250 nM

CC(C)c1csc(C(=O)NC23CC(NC(=O)COc4ccc(Cl)c(F)c4)(C2)C3)n1 [Compound 406, N-{3-[2-(4-chloro-3-fluorophenoxy)acetamido]bicyclo[1.1.1]pentan-1-yl}-4-(propan-2-yl)-1,3-thiazole-2-carboxamide]
EC50: 50 to 250 nM

CC(=O)N1CC=C(c2ncc(C(=O)NC34CC(NC(=O)COc5ccc(Cl)c(F)c5)(C3)C4)o2)CC1 [Compound 151, 2-(1-acetyl-1,2,3,6-tetrahydropyridin-4-yl)-N-{3-[2-(4-chloro-3-fluorophenoxy)acetamido]bicyclo[1.1.1]pentan-1-yl}-1,3-oxazole-5-carboxamide]
EC50: > 2000 nM

O=C(COc1ccc2c(c1)OC(F)(F)O2)NC12CC(NC(=O)c3cc(CO)ccn3)(C1)C2 [Compound 401, N-(3-{2-[(2,2-difluoro-2H-1,3-benzodioxol-5-yl)oxy]acetamido}bicyclo[1.1.1]pentan-1-yl)-4-(hydroxymethyl)pyridine-2-carboxamide]
EC50: 250 to 1000 nM

Cc1noc(C(=O)NC23CC(NC(=O)COc4ccc(Cl)c(F)c4)(C2)C3)n1 [Compound 375, N-{3-[2-(4-chloro-3-fluorophenoxy)acetamido]bicyclo[1.1.1]pentan-1-yl}-3-methyl-1,2,4-oxadiazole-5-carboxamide]
EC50: 50 to 250 nM

Cc1nn(C)c(C(=O)NC23CC(NC(=O)COc4ccc(Cl)c(F)c4)(C2)C3)c1F [Compound 499, N-{3-[2-(4-chloro-3-fluorophenoxy)acetamido]bicyclo[1.1.1]pentan-1-yl}-4-fluoro-1,3-dimethyl-1H-pyrazole-5-carboxamide]
EC50: < 50 nM

Cc1scnc1C(=O)NC12CC(NC(=O)COc3ccc(Cl)c(F)c3)(C1)C2 [Compound 541, N-{3-[2-(4-chloro-3-fluorophenoxy)acetamido]bicyclo[1.1.1]pentan-1-yl}-5-methyl-1,3-thiazole-4-carboxamide]
EC50: 1000 to 2000 nM

O=C(COc1ccc(Cl)c(F)c1)NC12CCC(NC(=O)c3cnc(C(F)F)cn3)(CC1)[C@H](O)C2 (single isomer, unassigned) [Compound 235]
EC50: 50 to 250 nM

O=C(COc1ccc(Cl)c(F)c1)NC12CCC(NC(=O)c3cn[nH]c3)(CC1)C(O)C2 (stereo not shown) [Compound 214, N-{4-[2-(4-chloro-3-fluorophenoxy)acetamido]-2-hydroxybicyclo[2.2.2]octan-1-yl}-1H-pyrazole-4-carboxamide]
EC50: > 2000 nM

Cc1nnsc1C(=O)NC12CC(NC(=O)COc3ccc(Cl)c(F)c3)(C1)C2 [Compound 845, N-{3-[2-(4-chloro-3-fluorophenoxy)acetamido]bicyclo[1.1.1]pentan-1-yl}-4-methyl-1,2,3-thiadiazole-5-carboxamide]
EC50: > 2000 nM

CCc1ncc(C(=O)NC23CC(NC(=O)COc4ccc(Cl)c(F)c4)(C2)C3)o1 [Compound 290, N-{3-[2-(4-chloro-3-fluorophenoxy)acetamido]bicyclo[1.1.1]pentan-1-yl}-2-ethyl-1,3-oxazole-5-carboxamide]
EC50: 50 to 250 nM

O=C(COc1ccc(Cl)c(F)c1)NC12CC(NC(=O)c3cc(CNC(=O)C4CC4)ccn3)(C1)C2 [Compound 391, N-{3-[2-(4-chloro-3-fluorophenoxy)acetamido]bicyclo[1.1.1]pentan-1-yl}-4-{[(cyclopropanecarbonyl)amino]methyl}pyridine-2-carboxamide]
EC50: 250 to 1000 nM

O=C(COc1ccc(Cl)c(F)c1)NC12CC(Nc3cccc4cnccc34)(C1)C2 [Compound 490, 2-(4-chloro-3-fluorophenoxy)-N-{3-[(isoquinolin-5-yl)amino]bicyclo[1.1.1]pentan-1-yl}acetamide]
EC50: 50 to 250 nM

Cc1nnc2c(NC34CC(NC(=O)COc5ccc(Cl)c(F)c5)(C3)C4)nccn12 [Compound 465, 2-(4-chloro-3-fluorophenoxy)-N-{3-[(3-methyl[1,2,4]triazolo[4,3-a]pyrazin-8-yl)amino]bicyclo[1.1.1]pentan-1-yl}acetamide]
EC50: > 2000 nM

COc1nc(C)c(C(=O)NC23CC(NC(=O)COc4ccc(Cl)c(F)c4)(C2)C3)s1 [Compound 872, N-{3-[2-(4-chloro-3-fluorophenoxy)acetamido]bicyclo[1.1.1]pentan-1-yl}-2-methoxy-4-methyl-1,3-thiazole-5-carboxamide]
EC50: 50 to 250 nM

COc1cncc(NC23CC(NC(=O)COc4ccc(Cl)c(F)c4)(C2)C3)n1 [Compound 756, 2-(4-chloro-3-fluorophenoxy)-N-{3-[(6-methoxypyrazin-2-yl)amino]bicyclo[1.1.1]pentan-1-yl}acetamide]
EC50: 250 to 1000 nM

O=C(COc1ccc(Cl)c(F)c1)NC12CCC(NC(=O)c3cccnc3)(CC1)C(O)C2 (stereo not shown) [Compound 217, N-{4-[2-(4-chloro-3-fluorophenoxy)acetamido]-2-hydroxybicyclo[2.2.2]octan-1-yl}pyridine-3-carboxamide]
EC50: 1000 to 2000 nM

O=C(COc1ccc(Cl)c(F)c1)NC12CCC(NC(=O)c3ccncc3)(CC1)C(O)C2 (stereo not shown) [Compound 218, N-{4-[2-(4-chloro-3-fluorophenoxy)acetamido]-2-hydroxybicyclo[2.2.2]octan-1-yl}pyridine-4-carboxamide]
EC50: > 2000 nM

Cc1ncoc1C(=O)NC12CC(NC(=O)COc3ccc(Cl)c(F)c3)(C1)C2 [Compound 869, N-{3-[2-(4-chloro-3-fluorophenoxy)acetamido]bicyclo[1.1.1]pentan-1-yl}-4-methyl-1,3-oxazole-5-carboxamide]
EC50: > 2000 nM

Cc1nc2ccc(C(=O)NC34CC(NC(=O)COc5ccc(Cl)c(F)c5)(C3)C4)cc2o1 [Compound 341, N-{3-[2-(4-chloro-3-fluorophenoxy)acetamido]bicyclo[1.1.1]pentan-1-yl}-2-methyl-1,3-benzoxazole-6-carboxamide]
EC50: > 2000 nM

Cc1cc2c(NC34CC(NC(=O)COc5cccc(OC(F)F)c5)(C3)C4)nccn2n1 [Compound 439, 2-[3-(difluoromethoxy)phenoxy]-N-{3-[(2-methylpyrazolo[1,5-a]pyrazin-4-yl)amino]bicyclo[1.1.1]pentan-1-yl}acetamide]
EC50: > 2000 nM
